These results are taken from paper PMC4897788, “Design, biological evaluation and 3D QSAR studies of novel dioxin-containing pyrazoline derivatives with thiourea skeleton as selective HER-2 inhibitors” (Scientific Reports, 2016).

In one series the target is T1, FAK (Homo sapiens, UniProt Q05397).
T1 construct: human-recombinant full-length FAK
Put plainly: FAK inhibitory assay (Kinase-Glo). In kind it is biochemical. Here is the method: Selected compounds were tested against FAK. In a typical study, human-recombinant full-length FAK was incubated in kinase buffer containing ATP and the substrate for 4 h at room temperature with or without the presence of the corresponding coumpounds. The final concentration of drug as 100, 30, 10, 3 μg/mL. The remaining ATP in solution was then quantified utilizing the Kinase-Glo-luminescence kit (Promega).
A general note: In Kinase-Glo more light means more ATP remaining.

A further series addresses T2, HER-3 (Homo sapiens, UniProt P21860).
T2 construct: HER-3 cytoplasmic domain (HER-3-CD, amino acids 665–1339); His6 (N); made in house
T2 sequence (P21860 665-1339): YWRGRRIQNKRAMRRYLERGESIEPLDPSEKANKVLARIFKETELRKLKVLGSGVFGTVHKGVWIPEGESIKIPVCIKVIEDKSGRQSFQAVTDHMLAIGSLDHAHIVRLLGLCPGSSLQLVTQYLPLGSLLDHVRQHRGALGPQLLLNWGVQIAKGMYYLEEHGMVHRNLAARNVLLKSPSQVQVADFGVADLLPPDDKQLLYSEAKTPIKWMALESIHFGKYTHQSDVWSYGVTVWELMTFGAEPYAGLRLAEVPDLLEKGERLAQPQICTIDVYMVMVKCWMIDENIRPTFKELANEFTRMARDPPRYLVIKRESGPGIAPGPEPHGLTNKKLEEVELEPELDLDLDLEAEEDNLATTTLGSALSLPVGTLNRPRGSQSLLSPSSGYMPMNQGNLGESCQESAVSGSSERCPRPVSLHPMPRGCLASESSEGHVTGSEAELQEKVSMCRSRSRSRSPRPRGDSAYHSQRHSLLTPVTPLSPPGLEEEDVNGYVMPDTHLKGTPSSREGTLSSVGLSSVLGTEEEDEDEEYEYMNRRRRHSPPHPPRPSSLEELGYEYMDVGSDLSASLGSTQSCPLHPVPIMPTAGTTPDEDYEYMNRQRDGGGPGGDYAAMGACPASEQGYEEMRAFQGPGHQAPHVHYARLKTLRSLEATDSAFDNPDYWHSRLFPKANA
Put plainly: HER-3 inhibitory assay. Type of series: biochemical. The protocol: A sequence that encodes (His)6 was located at the 5′ upstream to the HER-2 and EGFR sequences. Sf-9 cells were infected for 3 days for protein expression. Sf-9 cell pellets were solubilized at 0 °C in a buffer at pH 7.4 containing 50 mM HEPES, 10 mM NaCl, 1% Triton, 10 μM ammonium molybdate, 100 μM sodium vanadate, 10 μg/mL aprotinin, 10 μg/mL leupeptin, 10 μg/mL pepstatin, and 16 μg/mL benzamidine, HCl for 20 min followed by 20 min centrifugation. Crude extract supernatant was passed through an equilibrated Ni–NTA superflow packed column and washed with 10 mM and then 100 mM imidazole to remove nonspecifically bound material. Histidine-tagged proteins were eluted with 250 and 500 mM imidazole and dialyzed against 50 mM NaCl, 20 mM HEPES, 10% glycerol and 1 μg/mL each of aprotinin, leupeptin, and pepstatin for 2 h. The entire purification procedure was performed at 4 °C or on ice.
A 1.8 Kb cDNA encoded for human HER-3 cytoplasmic domain (HER-3-CD, amino acids 665–1339) was applied to perform the experiment using the same method as EGFR/HER-2.

The nature of series [1]: Cytotoxicity test (MTT), NIH-3T3. In kind it is cell-based. The note with it: mouse, NIH-3T3 mouse embryonic fibroblast cells, NIH3T3. The protocol:
The cytotoxic activity in vitro was measured against mouse fibroblast NIH-3T3 cell using the MTT assay. Cells were cultured in a 96-well plate at a density of 5 × 10^5 cells and different concentrations of compounds were respectively added to each well. The incubation was permitted at 37 °C, 5% CO2 atmosphere for 24 h before the cytotoxicity assessments. 20 μL MTT reagent (4 mg/mL) was added per well 4 h before the end of the incubation. Four hours later, the plate was centrifuged at 1200 rcf for 5 min and the supernatants were removed, each well was added with 200 μL DMSO. The absorbance was measured at a wavelength of 490 nm (OD 490 nm) on an ELISA microplate reader. Three replicate wells were used for each concentration and each assay was measured three times, after which the average of IC50 was calculated. The cytotoxicity of each compound was expressed as the concentration of compound that reduced cell viability to 50% (IC50).

Structures are written as SMILES.

T1 sequence (Q05397 whole entry): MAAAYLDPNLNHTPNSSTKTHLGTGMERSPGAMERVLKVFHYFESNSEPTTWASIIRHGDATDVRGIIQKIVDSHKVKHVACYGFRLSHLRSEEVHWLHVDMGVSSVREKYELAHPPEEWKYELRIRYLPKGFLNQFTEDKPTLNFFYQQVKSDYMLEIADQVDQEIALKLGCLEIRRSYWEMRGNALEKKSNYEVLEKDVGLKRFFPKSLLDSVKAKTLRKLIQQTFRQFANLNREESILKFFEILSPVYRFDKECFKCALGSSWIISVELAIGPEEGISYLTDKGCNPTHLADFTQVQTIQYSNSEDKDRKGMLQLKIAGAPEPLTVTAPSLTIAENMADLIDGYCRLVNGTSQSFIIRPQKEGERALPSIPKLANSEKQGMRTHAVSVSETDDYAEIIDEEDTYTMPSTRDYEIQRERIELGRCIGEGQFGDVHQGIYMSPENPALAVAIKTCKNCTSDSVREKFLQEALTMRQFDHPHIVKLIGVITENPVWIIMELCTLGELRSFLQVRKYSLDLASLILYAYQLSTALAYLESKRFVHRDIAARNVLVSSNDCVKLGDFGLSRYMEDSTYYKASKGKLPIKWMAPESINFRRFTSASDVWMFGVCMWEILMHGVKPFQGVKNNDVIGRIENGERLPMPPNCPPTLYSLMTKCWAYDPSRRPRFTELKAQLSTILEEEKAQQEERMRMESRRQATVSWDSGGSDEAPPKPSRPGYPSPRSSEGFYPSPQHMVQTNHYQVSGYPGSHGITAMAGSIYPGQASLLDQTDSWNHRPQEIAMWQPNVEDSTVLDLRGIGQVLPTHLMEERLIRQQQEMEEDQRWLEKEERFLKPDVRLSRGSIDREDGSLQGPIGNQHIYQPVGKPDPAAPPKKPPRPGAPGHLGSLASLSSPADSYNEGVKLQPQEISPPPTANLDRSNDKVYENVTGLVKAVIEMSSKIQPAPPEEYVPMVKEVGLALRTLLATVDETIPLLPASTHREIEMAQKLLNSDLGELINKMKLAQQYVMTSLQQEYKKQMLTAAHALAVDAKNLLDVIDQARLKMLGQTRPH

As for `COc1ccc(C2CC(c3ccc4c(c3)OCCO4)=NN2C(N)=S)cc1OC` (stereo not drawn) [Compound C20, 3-(2,3-dihydrobenzo[b][1,4]dioxin-6-yl)-5-(3,4-dimethoxyphenyl)-4,5-dihydro-1H-pyrazole-1-carbothioamide], the figures for the half-inhibitory concentration (IC50) on FAK and against HER-3 were 56.2 ± 5.48 µM and 5.2 ± 0.46 µM, respectively. Besides, the GI50 (as a rule, the concentration giving 50% growth inhibition) at 24 h in series [1] came to 274 ± 3.61 µM.
